# Data as given in patent US20060287319A1, “Anti-viral compositions comprising heterocyclic substituted phenyl furans and related compounds” (priority 2005, published 2006).
# Read-outs that look alike come from different tables or passages of the source.
# How the values were obtained:
# MT-2 cells = system: MT-2 cells
# Experimental: Detection of in vitro cytotoxicity. The in vitro cytotoxicity of compounds for MT-2 cells was measured by a colorimetric method using XTT tetrazolium dye as previously described (21). Briefly, 100 μl of a compound at a graded concentration was added to equal volume of cells (5×10^5/ml) in a well of 96-well plates. After incubation at 37° C. for 4 days, XTT (1 mg/ml; […]; PolySciences, Inc., Warrington, Pa.) was added. Four hours later, the soluble intracellular formazan was quantitated colorimetrically at 450 nm with a reference at 570 nm.
# [1] = system: HIV-1IIIB infected H9 cells (H9/HIV-1IIIB) and MT-2 cells; assay: HIV-1 mediated cell-cell fusion (dye transfer assay); type: cell-based; details: for EC50: H9/HIV-1IIIB with MT-2 cells, read-out: EC50 (μM) (M ± SD) for inhibition of Cell fusion; for inhibition of fusion of HIV-1IIIB infected H9 cells with uninfected MT-2 cells: dose dependent, FIG. 2
# Experimental: Inhibition of cell-cell fusion. A dye transfer assay was used for detection of HIV-1 mediated cell fusion as previously described (11,25,26). H9/HIV-1IIIB cells were labeled with a fluorescent reagent, Calcein-AM (Molecular Probes, Inc., Eugene, Oreg.) and then incubated with MT-2 cells (ratio=1:5) in 96-well plates at 37° C. for 2 hrs in the presence or absence of compounds tested. The fused and unfused Cacein-labeled HIV-1-infected cells were counted under an inverted fluorescence microscope (Zeiss, Germany) with an eyepiece micrometer disc. The percentage of inhibition of cell fusion and the IC50 values were calculated as previously described (11).
# [2] = biological target: gp41 six-helix bundle formation between N36 and C34 (Human immunodeficiency virus type 1 group M subtype B, UniProt P04578); details: read-out: IC50 for inhibition of six-helix bundle formation between N36 and C34; sandwich ELISA, FIG. 3
# Sequence of gp41 six-helix bundle formation between N36 and C34 (P04578 546-581): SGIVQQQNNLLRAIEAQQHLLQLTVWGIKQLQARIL
# Experimental: ELISA for screening for compounds that inhibit the gp41 six-helix bundle formation. A sandwich ELISA as previously described (27) was used to screen for compounds that inhibit the gp41 six-helix bundle formation. Briefly, peptide N36 (2 μM) was pre-incubated with a test compound at the indicated concentrations at 37° C. for 30 min, followed by addition of C34 (2 μM). In the control experiments, N36 was pre-incubated with C34 at 37° C. for 30 min, followed by addition of the test compound. After incubation at 37° C. for 30 min, the mixture was added to wells of a 96-well polystyrene plate (Costar, Corning Inc., Corning, N.Y.) which were precoated with IgG (2 μg/ml) purified from rabbit antisera directed against the N36/C34 mixture. […] Absorbance at 450 nm was measured using an ELISA reader (Ultra 384, Tecan, Research Triangle Park, N.C.). […] Chou (Sloan-Kettering Cancer Center, New York, N.Y.).
# A model system of the gp41 six-helix bundle was established by mixing the N— and C-peptides at equal molar concentrations (16).
# 93MW959 (clade C, R5) = details: read-out: EC50 (μM) (Mean ± SD)
# Experimental: (§1) Inhibitory activity of compounds on infection by primary HIV-1 isolates was determined as previously described (37). PBMCs were isolated from the blood of healthy donors at the New York Blood Center by standard density gradient centrifugation using Histopaque-1077 (Sigma). The cells were plated in 75 cm^2 plastic flasks and incubated at 37° C. for 2 hrs. The nonadherent cells were collected and resuspended at 5×10^6 in 10 ml RPMI-1640 medium containing 10% FBS, 5 μg/ml PHA and 100 U/ml IL-2 (Sigma), followed by incubation at 37° C. for 3 days. The PHA-stimulated cells were infected with corresponding primary HIV-1 isolates at 0.01 multiplicity of infection (MOI) in the absence or presence of a compound at graded concentrations. Culture media were changed every 3 days. The supernatants were collected 7 days post-infection and tested for p24 antigen by ELISA as described above. The percent inhibition of p24 production and IC50 values were calculated as described above.
# 93BR020 (clade F, X4R5) = details: read-out: EC50 (μM) (Mean ± SD)
# Experimental: as §1
# BCF02 (clade O, R5) = details: read-out: EC50 (μM) (Mean ± SD)
# Experimental: as §1
# 92UG001 (clade D, X4) = details: read-out: EC50 (μM) (Mean ± SD)
# Experimental: as §1
# 92US657 (clade B, R5) = details: read-out: EC50 (μM) (Mean ± SD)
# Experimental: as §1
# 92THA009 (clade E, R5) = details: read-out: EC50 (μM) (Mean ± SD)
# Experimental: as §1
# 94UG103 (clade A, X4R5) = details: read-out: EC50 (μM) (Mean ± SD)
# Experimental: as §1
# RU570 (clade G, R5) = details: read-out: EC50 (μM) (Mean ± SD)
# Experimental: as §1
# HIV-1 IIIB = details: for EC50: read-out: EC50 (μM) (M ± SD) for inhibition of p24, MT-2 cells; for SI (CC50/EC50): selectivity index
# Experimental: Assessment of anti-HIV-1 infectivity. The inhibitory activity of compounds on infection by laboratory-adapted HIV-1 strains was determined as previously described (34). […] For the time-of-addition assay, compounds were added at various time post-infection. Then the culture supernatants were removed and fresh media were added. On the fourth day post-infection, 100 μl of culture supernatants were collected from each well, mixed with equal volumes of 5% Triton X-100 and assayed for p24 antigen, which was quantitated by ELISA (23). Briefly, the wells of polystyrene plates (Immulon 1B, Dynex Technology, Chantilly, Va.) were coated with HIV immunoglobulin (HIVIG), which was prepared from plasma of HIV-seropositive donors with high neutralizing titers against HIV-1IIIB as previously described (36) in 0.085 M carbonate-bicarbonate buffer (pH 9.6) at 4° C. overnight, followed by washes with PBS-T buffer (0.01M PBS containing 0.05% Tween-20) and blocking with PBS containing 1% dry fat-free milk (Bio-Rad Inc., Hercules, Calif.). Virus lysates were added to the wells and incubated at 37° C. for 1 h. […] Reactions were terminated by addition of 1N H2SO4. […] Recombinant protein p24 (US Biological, Swampscott, Mass.) was included for establishing standard dose response curve.
# [3] = read-out: Cytotoxicity CC50 (μM) (M ± SD), MT-2 cells
# [4] = read-out: IC50 (μM) (Mean ± SD), HIV-1 strain IIIB
Structure (SMILES),CC50 (MT-2 cells; [3]),EC50 [1],inhibition of fusion of HIV-1IIIB infected H9 cells with uninfected MT-2 cells [1],IC50 [2],"EC50 (93MW959 (clade C, R5))","EC50 (93BR020 (clade F, X4R5))","EC50 (BCF02 (clade O, R5))","EC50 (92UG001 (clade D, X4))","EC50 (92US657 (clade B, R5))","EC50 (92THA009 (clade E, R5))","EC50 (94UG103 (clade A, X4R5))","EC50 (RU570 (clade G, R5))",EC50 (HIV-1 IIIB; HIV-1 IIIB),IC50 (HIV-1 IIIB; [4]),SI (CC50/EC50) (HIV-1 IIIB),IC50 [1],"IC50 (HIV-1 IIIB; read-out: IC50 inhibiting HIV-1 replication, HIV-1 IIIB)",CC50 (MT-2 cells)
O=C(O)c1cccc(-c2ccc(/C=C3\SC(=S)N(c4ccc(Cl)cc4Cl)C3=O)o2)c1 [NB231],124.1 ± 0.756 µM,0.982 ± 0.054 µM,inhibited fusion,0.93 ± 0.33 µM,0.876 ± 0.002 µM,0.139 ± 0.033 µM,0.226 ± 0.003 µM,0.19 ± 0.002 µM,1.06 ± 0.344 µM,0.217 ± 0.058 µM,0.125 ± 0.013 µM,0.143 ± 0.061 µM,0.189 ± 0.042 µM,0.189 ± 0.042 µM,656.56,–,–,–
O=C(O)c1cc(-c2ccc(/C=C3\SC(=S)N(CCc4ccccc4)C3=O)o2)ccc1Cl [NB206],18.8 ± 7.48 µM,0.459 ± 0.05 µM,inhibited fusion,0.83 ± 0.03 µM,0.097 ± 0.002 µM,0.084 ± 0.036 µM,0.073 ± 0.012 µM,0.188 ± 0.053 µM,0.216 ± 0.054 µM,0.075 ± 0.022 µM,0.004 ± 0.001 µM,0.017 ± 0.004 µM,0.019 ± 0.002 µM,–,981.11,< 0.667 µM,0.019 µM,–
CCN1C(=O)/C(=C/c2ccc(-c3cccc(C(=O)O)c3)o2)SC1=S [NB179],–,3.66 ± 0.154 µM,inhibited fusion,2.51 ± 0.27 µM,1.87 ± 0.155 µM,0.143 ± 0.056 µM,0.886 ± 0.242 µM,0.613 ± 0.099 µM,0.847 ± 0.356 µM,6.21 ± 0.987 µM,0.088 ± 0.047 µM,0.431 ± 0.122 µM,0.501 ± 0.039 µM,0.501 ± 0.039 µM,>1230.77,–,–,> 616 µM
